This note sets out measurements from patent publication US20040092428A1, “Oral pharmaceuticals formulation comprising paclitaxel, derivatives and methods of administration thereof” (priority 2001, published 2004).

This data set deals with P-glycoprotein (Homo sapiens, UniProt P08183). The method, then:
P-glycoprotein inhibition has been determined with an in vitro assay. […] Therefore, the initial pool of compounds screened included excipients that were acceptable for oral or IV use and included PEG in the chemical structure. Compounds were first screened for toxicity in the NIH3T3 cell line and then tested for P-gp inhibition with paclitaxel using the protocol outlined below:
Day 0: Seed cells and incubate.
Day 1: Add potential P-gp inhibitor at fixed concentration and paclitaxel at various concentrations and incubate for 2 days.
Day 3: Add MTT and extraction/lysis buffer.
Day 4: Read absorbance to measure cell growth. Calculate IC50 to determine amount of paclitaxel required for cell death
After calculations of IC50 values, relative rank order of the compounds were determined.

Sequence of P-glycoprotein (P08183 whole entry): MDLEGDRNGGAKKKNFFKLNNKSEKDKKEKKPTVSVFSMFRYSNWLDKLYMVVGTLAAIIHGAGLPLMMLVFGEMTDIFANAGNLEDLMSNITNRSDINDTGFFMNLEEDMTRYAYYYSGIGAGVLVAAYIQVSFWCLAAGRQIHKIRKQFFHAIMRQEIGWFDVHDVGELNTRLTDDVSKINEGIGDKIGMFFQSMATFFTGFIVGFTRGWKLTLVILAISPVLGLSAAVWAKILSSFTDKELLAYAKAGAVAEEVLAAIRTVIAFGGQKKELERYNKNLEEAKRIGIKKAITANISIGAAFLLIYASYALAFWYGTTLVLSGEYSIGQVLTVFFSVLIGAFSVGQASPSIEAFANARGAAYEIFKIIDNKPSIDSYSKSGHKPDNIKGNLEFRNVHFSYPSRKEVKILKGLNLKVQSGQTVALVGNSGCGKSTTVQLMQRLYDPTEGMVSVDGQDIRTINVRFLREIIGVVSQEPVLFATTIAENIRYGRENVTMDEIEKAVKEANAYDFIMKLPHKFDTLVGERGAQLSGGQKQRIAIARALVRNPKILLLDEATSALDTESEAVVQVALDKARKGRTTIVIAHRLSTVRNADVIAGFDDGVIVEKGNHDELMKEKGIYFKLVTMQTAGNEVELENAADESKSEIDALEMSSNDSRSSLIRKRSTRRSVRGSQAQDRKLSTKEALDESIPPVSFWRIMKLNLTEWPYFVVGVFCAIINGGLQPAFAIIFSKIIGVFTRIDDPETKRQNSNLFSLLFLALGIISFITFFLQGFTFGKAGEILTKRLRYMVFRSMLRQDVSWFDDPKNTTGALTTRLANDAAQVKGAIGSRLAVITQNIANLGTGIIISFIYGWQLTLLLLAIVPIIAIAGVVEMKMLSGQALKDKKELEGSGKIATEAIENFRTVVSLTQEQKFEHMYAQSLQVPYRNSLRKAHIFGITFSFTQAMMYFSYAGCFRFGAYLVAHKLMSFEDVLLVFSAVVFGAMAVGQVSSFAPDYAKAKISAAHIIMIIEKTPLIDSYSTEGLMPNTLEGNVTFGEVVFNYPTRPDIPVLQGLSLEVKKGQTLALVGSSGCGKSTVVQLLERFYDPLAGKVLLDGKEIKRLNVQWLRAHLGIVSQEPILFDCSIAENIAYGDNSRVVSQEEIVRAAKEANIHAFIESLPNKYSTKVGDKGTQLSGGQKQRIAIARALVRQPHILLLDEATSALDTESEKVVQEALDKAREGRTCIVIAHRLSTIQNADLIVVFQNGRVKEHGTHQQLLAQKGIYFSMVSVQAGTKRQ

PEG-100 stearate: the “P-gp inhibition measured by an IC50 ratio” value was over 1.0.
The result for polysorbate 80 reads over 1.0.
